Experiment [1] has as its target T1, IDO1 (Homo sapiens, UniProt P14902). The experiment can be described thus: IDO1 Human Whole blood Assay. It is filed as cell-based. On the set-up: Human whole blood was drawn in sodium heparin coated tubes from healthy internal donors; from tissue; host or cells: human whole blood from healthy donors, stimulated with LPS and IFNγ. Particulars: LPS and IFNγ stimulated, 18 h, read-out: Human Whole Blood Potency, IC50. The gist of the method:
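Heparinized healthy-donor human whole blood was preincubated 15 min with compound, then stimulated with LPS and IFNγ (100 ng/mL final) for 18 h at 37 °C. Plasma kynurenine was quantified by LC/MS/MS against a D6-kynurenine internal standard, and IC50s came from 4-parameter sigmoidal fits.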

The target of experiment [2] is T1, IDO1. The experiment can be described thus: IDO1 Cellular Assay in HeLa Cells Stimulated with IFNγ. It is filed as cell-based. The note with it: read-out: HeLa Cell Potency, IC50.

Structures are written as SMILES.

These results are taken from US12264134B2 (Merck Sharp & Dohme LLC, priority 2018, dated 2025).

T1 sequence (P14902 whole entry): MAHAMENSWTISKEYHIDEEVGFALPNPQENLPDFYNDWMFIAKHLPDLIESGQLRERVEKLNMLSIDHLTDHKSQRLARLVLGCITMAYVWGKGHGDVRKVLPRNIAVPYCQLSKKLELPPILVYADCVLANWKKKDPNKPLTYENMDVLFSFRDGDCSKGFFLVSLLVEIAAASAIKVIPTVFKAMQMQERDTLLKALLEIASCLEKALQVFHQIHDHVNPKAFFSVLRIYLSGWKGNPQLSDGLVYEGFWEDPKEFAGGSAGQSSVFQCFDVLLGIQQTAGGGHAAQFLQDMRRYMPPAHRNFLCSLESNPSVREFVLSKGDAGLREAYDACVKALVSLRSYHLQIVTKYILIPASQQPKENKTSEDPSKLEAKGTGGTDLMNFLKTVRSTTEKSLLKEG

With `Cc1cccc(N2CCN(C(=O)Cn3nc(C(=O)N4CC[C@H](O)C(F)(F)C4)c4c3CCC4)CC2)c1C` (single isomer, unassigned) [Example 201, 2-[3-[(4S or 4R)-3,3-difluoro-4-hydroxy-piperidine-1-carbonyl]-5,6-dihydro-4H-cyclopenta[c]pyrazol-1-yl]-1-[4-(2,3-dimethylphenyl)piperazin-1-yl]ethanone], the IC50 was found to be 1800 nM at IDO1 [1] and 3.67 nM at IDO1 [2].
The matching figures for `Cc1cccc(N2CCN(C(=O)Cn3nc(C(=O)N4CC[C@H](O)[C@H](F)C4)c4c3CCC4)CC2)c1C` [Example 92, 1-[4-(2,3-dimethylphenyl)piperazin-1-yl]-2-{3-[(3R,4S)-3-fluoro-4-hydroxypiperidine-1-carbonyl]-5,6-dihydrocyclopenta[c]pyrazol-1(4H)-yl}ethan-1-one]: 256 nM and 10.8 nM.
Taken in the same sequence, the figures for `Cc1cccc(N2CCN(C(=O)Cn3nc(C(=O)N4CC[C@@H](O)[C@H](F)C4)c4c3CCC4)CC2)c1C` [Example 91, 1-[4-(2,3-dimethylphenyl)piperazin-1-yl]-2-{3-[(3R,4R)-3-fluoro-4-hydroxypiperidine-1-carbonyl]-5,6-dihydrocyclopenta[c]pyrazol-1(4H)-yl}ethan-1-one] were 9550 nM and 5.8 nM.
In the case of `Cc1cccc(N2CCN(C(=O)Cn3nc(C(=O)N4CCC(n5ncnn5)CC4)c4c3CCC4)CC2)c1C` [Example 129, 1-[4-(2,3-dimethylphenyl)piperazin-1-yl]-2-{3-[4-(2H-tetrazol-2-yl)piperidine-1-carbonyl]-2,6-dihydrocyclopenta[c]pyrazol-1(4H)-yl}ethan-1-one], the IC50 came to 311 nM at IDO1 [1] and 3.08 nM on IDO1 [2].
Turning to `Cc1cccc(N2CCN(C(=O)Cn3nc(C(=O)N4CCC(N)CC4)c4c3C[C@H]3C[C@@H]43)CC2)c1C` [Example 479, 2-((3bR,4aR)-3-(4-aminopiperidine-1-carbonyl)-3b,4,4a,5-tetrahydro-1H-cyclopropa [3,4]cyclopenta[1,2-c]pyrazol-1-yl)-1-(4-(2,3-dimethylphenyl)piperazin-1-yl)ethanone], the IC50 worked out at 230 nM on IDO1 [1] and 7.51 nM at IDO1 [2].
Take `Cc1cccc(N2CCN(C(=O)Cn3nc(C(=O)N4CC[C@@H](O)[C@H](C)C4)c4c3CCC4)CC2)c1C` [Example 108, 1-[4-(2,3-dimethylphenyl)piperazin-1-yl]-2-{3-[(3R,4R)-4-hydroxy-3-methylpiperidin-1-carbonyl]-5,6-dihydrocyclopenta[c]pyrazol-1(4H)-yl}ethan-1-one]: the IC50 was 77 nM on IDO1 [1] and 1.79 nM at IDO1 [2].
For the molecule `Cc1c(F)ccc(N2CCN(C(=O)Cn3nc(C(=O)N4CC[C@H](O)[C@H](F)C4)c4c3CCCC4)CC2)c1C` [Example 465, 1-(4-(4-fluoro-2,3-dimethylphenyl)piperazin-1-yl)-2-(3-((3R,4S)-3-fluoro-4-hydroxypiperidine-1-carbonyl)-4,5,6,7-tetrahydro-1H-indazol-1-yl)ethanone], the IC50 at IDO1 [1] turned out to be 87 nM; on IDO1 [2] it was 1.47 nM.
Taken in the same sequence, the figures for `Cc1cccc(N2CCN(C(=O)Cn3nc(C(=O)N4CCN5CCOC[C@H]5C4)c4c3CCC4)CC2)c1C` [Example 173, 1-[4-(2,3-dimethylphenyl)piperazin-1-yl]-2-{3-[(9aR)-hexahydropyrazino[2,1-c][1,4]oxazine-8(1H)-carbonyl]-5,6-dihydrocyclopenta[c]pyrazol-1(4H)-yl}ethan-1-one] were 1670 nM and 7.66 nM.
On to `Cc1cccc(N2CCN(C(=O)Cn3nc(C(=O)N4CCCC4)c4c3CCC4)CC2)c1C` [Example 1, 1-(4-(2,3-dimethylphenyl)piperazin-1-yl)-2-(3-(pyrrolidine-1-carbonyl)-5,6-dihydrocyclopenta[c]pyrazol-1(4H)-yl)ethanone], for which the IC50 at IDO1 [1] is 1820 nM; at IDO1 [2], 8.75 nM.
Take `Cc1cccc(N2CCN(C(=O)Cn3nc(C(=O)N4CC[C@H](CO)C4)c4c3CCC4)CC2)c1C` [Example 83, 1-[4-(2,3-dimethylphenyl)piperazin-1-yl]-2-{3-[(3S)-3-(hydroxymethyl)pyrrolidine-1-carbonyl]-5,6-dihydrocyclopenta[c]pyrazol-1(4H)-yl}ethan-1-one]: the IC50 at IDO1 [1] came to 3490 nM; at IDO1 [2] it was 5.63 nM.
The matching figures for `Cc1cccc(N2CCN(C(=O)Cn3nc(C(=O)N4CCN(S(=O)(=O)N(C)C)CC4)c4c3CCC4)CC2)c1C` [Example 89, 4-(1-{2-[4-(2,3-dimethylphenyl)piperazin-1-yl]-2-oxoethyl}-1,4,5,6-tetrahydrocyclopenta[c]pyrazole-3-carbonyl)-N,N-dimethylpiperazine-1-sulfonamide]: 454 nM and 2.96 nM.
As to `Cc1c(F)ccc(N2CCN(C(=O)Cn3nc(C(=O)N4CCC(O)C(CO)C4)c4c3C[C@@H]3C[C@H]43)C3(CC3)C2)c1C` (stereo in doubt) [Example 324, 1-[7-(4-fluoro-2,3-dimethylphenyl)-4,7-diazaspiro[2.5]octan-4-yl]-2-{(3bS,4aS)-3-[4-hydroxy-3-(hydroxymethyl)piperidine-1-carbonyl]-3b,4,4a,5-tetrahydro-1H-cyclopropa[3,4]cyclopenta[1,2-c]pyrazol-1-yl}ethan-1-one], the IC50 on IDO1 [1] turned out to be 555 nM; at IDO1 [2], 0.64 nM.
Taken in the same sequence, the figures for `CC(=O)NC1CCN(C(=O)c2nn(CC(=O)N3CCN(c4cccc(Cl)c4C)CC3)c3c2CC(F)(F)CC3)CC1` [Example 380, N-(1-(1-(2-(4-(3-chloro-2-methylphenyl)piperazin-1-yl)-2-oxoethyl)-5,5-difluoro-4,5,6,7-tetrahydro-1H-indazole-3-carbonyl)piperidin-4-yl)acetamide] were 94 nM and 1.67 nM.
As to `Cc1cccc(N2CCN(C(=O)Cn3nc(C(=O)N4CCN(CC(F)(F)F)CC4)c4c3CCC4)CC2)c1C` [Example 158, 1-[4-(2,3-dimethylphenyl)piperazin-1-yl]-2-{3-[4-(2,2,2-trifluoroethyl)piperazine-1-carbonyl]-5,6-dihydrocyclopenta[c]pyrazol-1(4H)-yl}ethan-1-one], the IC50 worked out at 375 nM on IDO1 [1] and 3.06 nM on IDO1 [2].
Taken in the same sequence, the figures for `Cc1c(Cl)cccc1N1CCN(C(=O)Cn2nc(C(=O)N3C[C@@H](C)O[C@@H](C)C3)c3c2CCC3)CC1` [Example 68, 1-[4-(3-chloro-2-methylphenyl)piperazin-1-yl]-2-{3-[(2R,6S)-2,6-dimethylmorpholine-4-carbonyl]-5,6-dihydrocyclopenta[c]pyrazol-1(4H)-yl}ethan-1-one] were 1010 nM and 3.6 nM.
Regarding `Cc1c(Cl)cccc1N1CCN(C(=O)Cn2nc(C(=O)N3CCC(O)CC3)c3c2C(F)(F)[C@H]2C[C@@H]32)CC1` [Example 448, 1-(4-(3-chloro-2-methylphenyl)piperazin-1-yl)-2-((3bR,4aS)-5,5-difluoro-3-(4-hydroxypiperidine-1-carbonyl)-3b,4,4a,5-tetrahydro-1H-cyclopropa[3,4]cyclopenta[1,2-c]pyrazol-1-yl)ethanone], the IC50 was 365 nM at IDO1 [1] and 3.54 nM on IDO1 [2].
The matching figures for `Cc1cccc(N2CCN(C(=O)Cn3nc(C(=O)N4CC[C@H](O)[C@@H](F)C4)c4c3CCCC4)CC2)c1C` [Example 468, 1-(4-(2,3-dimethylphenyl)piperazin-1-yl)-2-(3-((3S,4S)-3-fluoro-4-hydroxypiperidine-1-carbonyl)-4,5,6,7-tetrahydro-1H-indazol-1-yl)ethanone]: 88 nM and 1.9 nM.
As to `Cc1cccc(N2CCN(C(=O)Cn3nc(C(=O)N4CCN(CC(N)=O)CC4)c4c3CCC4)CC2)c1C` [Example 165, 2-[4-(1-{2-[4-(2,3-dimethylphenyl)piperazin-1-yl]-2-oxoethyl}-1,4,5,6-tetrahydrocyclopenta[c]pyrazole-3-carbonyl)piperazin-1-yl]acetamide], the IC50 on IDO1 [1] was determined as 79 nM; on IDO1 [2], 8.85 nM.
Taken in the same sequence, the figures for `Cc1cccc(N2CCN(C(=O)Cn3nc(C(=O)N4CCN(C(=O)CO)CC4)c4c3C[C@H]3C[C@@H]43)C3(CC3)C2)c1C` [Example 355, 1-(4-((3bR,4aR)-1-(2-(7-(2,3-dimethylphenyl)-4,7-diazaspiro[2.5]octan-4-yl)-2-oxoethyl)-3b,4,4a,5-tetrahydro-1H-cyclopropa[3,4]cyclopenta[1,2-c]pyrazole-3-carbonyl)piperazin-1-yl)-2-hydroxyethanone] were 829 nM and 0.94 nM.
The matching figures for `Cc1cccc(N2CCN(C(=O)Cn3nc(C(=O)N4C[C@@H](C)N(C)[C@@H](C)C4)c4c3C[C@H]3C[C@@H]43)CC2)c1C` [Example 235, 1-[4-(2,3-dimethylphenyl)piperazin-1-yl]-2-{(3bR,4aR)-3-[(3R,5S)-3,4,5-trimethylpiperazine-1-carbonyl]-3b,4,4a,5-tetrahydro-1H-cyclopropa[3,4]cyclopenta[1,2-c]pyrazol-1-yl}ethan-1-one]: 339 nM and 3.1 nM.
The matching figures for `Cc1cccc(N2CCN(C(=O)Cn3nc(C(=O)N4CC[C@H](O)[C@H](F)C4)c4c3C[C@H]3C[C@@H]43)CC2)c1C` [Example 289, 1-[4-(2,3-dimethylphenyl)piperazin-1-yl]-2-{(3bR,4aR)-3-[(3R,4S)-3-fluoro-4-hydroxypiperidine-1-carbonyl]-3b,4,4a,5-tetrahydro-1H-cyclopropa[3,4]cyclopenta[1,2-c]pyrazol-1-yl}ethan-1-one]: 180 nM and 1.95 nM.
As to `Cc1cccc(N2CCN(C(=O)Cn3nc(C(=O)N4CC[C@@H](O)[C@H](F)C4)c4c3CCCC4)CC2)c1C` [Example 472, 1-(4-(2,3-dimethylphenyl)piperazin-1-yl)-2-(3-((3R,4R)-3-fluoro-4-hydroxypiperidine-1-carbonyl)-4,5,6,7-tetrahydro-1H-indazol-1-yl)ethanone], the values for the concentration for half-maximal inhibition (IC50) on IDO1 [1] and on IDO1 [2] were 208 nM and 3.37 nM, respectively.

Broadly, the IC50 is the midpoint of a concentration-inhibition curve.
